# Test results: publication PMC9529944, “Molecular asymmetry of a photosynthetic supercomplex from green sulfur bacteria” (Nature Communications, 2022)
# B1: Fenna-Matthews-Olson (FMO) complex (natural protein, UniProt Q46393 1-366, looked up)
# chain: MALFGSNDVTTAHSDYEIVLEGGSSSWGKVKARAKVNAPPASPLLPADCDVKLNVKPLDPAKGFVRISAVFESIVDSTKNKLTIEADIANETKERRISVGEGMVSVGDFSHTFSFEGSVVNLFYYRSDAVRRNVPNPIYMQGRQFHDILMKVPLDNNDLIDTWEGTVKAIGSTGAFNDWIRDFWFIGPAFTALNEGGQRISRIEVNGLNTESGPKGPVGVSRWRFSHGGSGMVDSISRWAELFPSDKLNRPAQVEAGFRSDSQGIEVKVDGEFPGVSVDAGGGLRRILNHPLIPLVHHGMVGKFNNFNVDAQLKVVLPKGYKIRYAAPQYRSQNLEEYRWSGGAYARWVEHVCKGGVGQFEILYAQ
# notes: FMO bacteriochlorophyll a protein of Chlorobaculum tepidum TLS; homotrimer, each monomer with eight BChl a; Two trimers (FMO1, FMO2) of the same protein sit on one reaction center in the RC-FMO2 structure; they are one molecule here; also called FMO trimer; FMO1
# How the values were obtained:
# [1] = molecular target: T1, GsbRC core (PscA dimer) in the RC-FMO2 photosynthetic supercomplex (Chlorobaculum tepidum, UniProt Q8KAY0); experiment: cryo-EM structure, RC-FMO2 […] Å; format: binding
# T1 construct: gene CT2020; native complex from membranes of C. tepidum, DDM-solubilized, no tags; homodimeric PscA core with associated subunits; PscE 59 residues modeled; with Photosystem P840 reaction center iron-sulfur protein; Cytochrome c (photosystem P840 reaction center cytochrome c-551); Photosystem P840 reaction center protein PscD; PscE, accessory membrane subunit; Ric1 protein; Bacteriochlorophyll a protein
# PscB = molecular target: T2, PscB (Chlorobaculum tepidum, UniProt Q8KAY1); experiment: cryo-EM structure, RC-FMO2 […] Å; format: binding; conditions: FA and FB clusters
# T2 construct: native subunit in the RC-FMO2 supercomplex, no tags; loop 17-129 unmodelled; with Photosystem P840 reaction center, large subunit
# [2] = molecular target: the molecule itself; experiment: cryo-EM structure; single-particle cryo-EM of the native supercomplex extracted with DDM from C. tepidum membranes; RC-FMO2 at 3.08 Å (local 2.92 and 3.06 Å), RC-FMO1 at 3.49 Å; 20 mM Tris-Cl pH 8.0, 200 mM NaCl, 0.17 mM DDM
# [3] = molecular target: B1; experiment: as above; conditions: both partners purified
molecule,measurement,setting,value
"CC(C)=CCC/C(C)=C/C=C/C(C)=C/C=C/C(C)=C/C=C/C=C(C)/C=C/C=C(C)/C=C/c1c(C)ccc(C)c1C [F26, chlorobactene]","cryo-EM structure, RC-FMO2 3.08 Å",[1]; three molecules in RC core,"four Chl a, three chlorobactenes (F26)"
"[S]1[Fe]2[S]3[S]4[Fe][S]2[Fe]4[Fe]13 [SF4, iron-sulfur cluster]","cryo-EM structure, RC-FMO2 3.08 Å",PscB,Cartoons are the protein residues that interact with the FeS clusters
same,"cryo-EM structure, RC-FMO2 3.08 Å",[1]; FX cluster at PscA dimer,The FeS clusters and P840 dimer that drive the ETC in RC-FMO2 are arranged similarly
B1,binding result,[2],binds
"PscD (natural protein, UniProt Q8KEP5 1-143, looked up, PscD subunit of the reaction center of Chlorobaculum tepidum; also called PscD subunit) MQPQLSRPQTASNQVRKAVSGPWSGNAVHKAEKYFITSAKRDRDGKLQIELVPASGRRKLSPTPEMIRRLIDGEIEIYILTTQPDIAIDMNKEIIDMENRYVIDFDKRGVKWTMREIPVFYHEGKGLCVELHNKIYTLDQFFK",binding result,[3],binds
